# Results taken from patent US12077503B2, “Substituted cyclic amides and their use as herbicides” (FMC CORPORATION, priority 2015, dated 2024).
# Experiments:
# Format in all cases: in vivo
# [1] = system: velvetleaf (Abutilon theophrasti); assay: Test G Post-Emergence Protocol; details: Abutilon theophrasti, post-emergence, 312 h, read-out: Velvetleaf damage rating
# Outline: (§1)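 Scores run 0 (no damage) to 100 (total damage) and were taken 13 days after spraying. Plants had been raised in pots for 8 days under glasshouse control (24/16 °C, 14 h photoperiod, 65% humidity) and then treated at 15.625, 62.5 or 250 g/ha.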
# [2] = system: barnyardgrass (Echinochloa crus-galli); assay: Test G Post-Emergence Protocol; details: Echinochloa crus-galli, post-emergence, 312 h, read-out: Barnyardgrass damage rating
# Outline: as §1
# [3] = system: redroot pigweed (Amaranthus retroflexus); assay: Test G Post-Emergence Protocol; details: Amaranthus retroflexus, post-emergence, 312 h, read-out: Pigweed, Redroot damage rating
# Outline: as §1
# corn (Zea mays) [4] = assay: Test G Post-Emergence Protocol; details: Zea mays, post-emergence, 312 h, read-out: Corn damage rating
# Outline: as §1
# [5] = system: giant foxtail (Setaria faberi); assay: Test G Post-Emergence Protocol; details: Setaria faberi, post-emergence, 312 h, read-out: Foxtail, Giant damage rating
# Outline: as §1
# [6] = system: ivy-leaved morning glory (Ipomoea hederacea); assay: Test G Post-Emergence Protocol; details: Ipomoea, post-emergence, 312 h, read-out: Morningglory, Ivy-leaved damage rating
# Outline: as §1
# [7] = system: velvetleaf (Abutilon theophrasti); assay: Test G Pre-Emergence Protocol; details: Abutilon theophrasti, pre-emergence, 312 h, evaluated after 13 days
# Outline: (§2)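 Under a 24/16° C day/night regime with 14 h light and 65% humidity, sown pots were sprayed after one day with compound (15.625, 62.5 or 250 g/ha; 50:50 acetone/water, 0.5% Tween 20). Damage was assessed visually 13 days later, 0 to 100.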
# [8] = system: barnyardgrass (Echinochloa crus-galli); assay: Test G Pre-Emergence Protocol; details: Echinochloa crus-galli, pre-emergence, 312 h, evaluated after 13 days
# Outline: as §2
# [9] = system: redroot pigweed (Amaranthus retroflexus); assay: Test G Pre-Emergence Protocol; details: Amaranthus retroflexus, pre-emergence, 312 h, evaluated after 13 days
# Outline: as §2
# corn (Zea mays) [10] = assay: Test G Pre-Emergence Protocol; details: Zea mays, pre-emergence, 312 h, evaluated after 13 days
# Outline: as §2
# [11] = system: giant foxtail (Setaria faberi); assay: Test G Pre-Emergence Protocol; details: Setaria faberi, pre-emergence, 312 h, evaluated after 13 days
# Outline: as §2
# [12] = system: ivy-leaved morning glory (Ipomoea hederacea); assay: Test G Pre-Emergence Protocol; details: Ipomoea, pre-emergence, 312 h, evaluated after 13 days
# Outline: as §2
# [13] = 15.625 g ai/ha, evaluated after 13 days (100=total damage to plant; 0=no damage to plant)
# [14] = 62.5 g ai/ha, evaluated after 13 days, 100=total damage to plant, 0=no damage to plant
# [15] = 250 g ai/ha, evaluated after 13 days, 100=total damage to plant, 0=no damage to plant
smiles,measurement,setting,value
COc1cc(C2CN(C)C(=O)C2C(=O)Nc2cccc(F)c2F)cc(Cl)c1F (stereo not drawn) [Compound 1705],pest or weed control at 15.625 g/ha,[1]; [13],0%
same,pest or weed control at 62.5 g/ha,[1]; [14],0%
same,pest or weed control at 250 g/ha,[1]; [15],10%
same,pest or weed control at 15.625 g/ha,[2]; [13],20%
same,pest or weed control at 62.5 g/ha,[2]; [14],30%
same,pest or weed control at 250 g/ha,[2]; [15],80%
same,pest or weed control at 15.625 g/ha,[3]; [13],0%
same,pest or weed control at 62.5 g/ha,[3]; [14],0%
same,pest or weed control at 250 g/ha,[3]; [15],30%
same,plant injury at 15.625 g/ha,corn (Zea mays) [4]; [13],10%
same,plant injury at 62.5 g/ha,corn (Zea mays) [4]; [14],0%
same,plant injury at 250 g/ha,corn (Zea mays) [4]; [15],70%
same,pest or weed control at 15.625 g/ha,[5]; [13],70%
same,pest or weed control at 62.5 g/ha,[5]; [14],70%
same,pest or weed control at 250 g/ha,[5]; [15],80%
same,pest or weed control at 15.625 g/ha,[6]; [13],0%
same,pest or weed control at 62.5 g/ha,[6]; [14],20%
same,pest or weed control at 250 g/ha,[6]; [15],50%
same,pest or weed control at 15.625 g/ha,"[7]; 15.625 g ai/ha, read-out: Velvetleaf damage rating (100=total damage to plant; 0=no damage to plant)",0%
same,pest or weed control at 62.5 g/ha,"[7]; 62.5 g ai/ha, 100=total damage to plant, 0=no damage to plant, read-out: Velvetleaf damage rating",0%
same,pest or weed control at 250 g/ha,"[7]; 250 g ai/ha, read-out: Velvetleaf damage rating (100=total damage to plant; 0=no damage to plant)",20%
same,pest or weed control at 15.625 g/ha,"[8]; 15.625 g ai/ha, read-out: Barnyardgrass damage rating (100=total damage to plant; 0=no damage to plant)",20%
same,pest or weed control at 62.5 g/ha,"[8]; 62.5 g ai/ha, 100=total damage to plant, 0=no damage to plant, read-out: Barnyardgrass damage rating",60%
same,pest or weed control at 250 g/ha,"[8]; 250 g ai/ha, read-out: Barnyardgrass damage rating (100=total damage to plant; 0=no damage to plant)",70%
same,pest or weed control at 15.625 g/ha,"[9]; 15.625 g ai/ha, read-out: Pigweed, Redroot damage rating (100=total damage to plant; 0=no damage to plant)",0%
same,pest or weed control at 62.5 g/ha,"[9]; 62.5 g ai/ha, 100=total damage to plant, 0=no damage to plant, read-out: Pigweed, Redroot damage rating",0%
same,pest or weed control at 250 g/ha,"[9]; 250 g ai/ha, read-out: Pigweed, Redroot damage rating (100=total damage to plant; 0=no damage to plant)",30%
same,plant injury at 15.625 g/ha,"corn (Zea mays) [10]; 15.625 g ai/ha, read-out: Corn damage rating (100=total damage to plant; 0=no damage to plant)",0%
same,plant injury at 62.5 g/ha,"corn (Zea mays) [10]; 62.5 g ai/ha, 100=total damage to plant, 0=no damage to plant, read-out: Corn damage rating",10%
same,plant injury at 250 g/ha,"corn (Zea mays) [10]; 250 g ai/ha, read-out: Corn damage rating (100=total damage to plant; 0=no damage to plant)",70%
same,pest or weed control at 15.625 g/ha,"[11]; 15.625 g ai/ha, read-out: Foxtail, Giant damage rating (100=total damage to plant; 0=no damage to plant)",50%
same,pest or weed control at 62.5 g/ha,"[11]; 62.5 g ai/ha, 100=total damage to plant, 0=no damage to plant, read-out: Foxtail, Giant damage rating",70%
same,pest or weed control at 250 g/ha,"[11]; 250 g ai/ha, read-out: Foxtail, Giant damage rating (100=total damage to plant; 0=no damage to plant)",80%
same,pest or weed control at 15.625 g/ha,"[12]; 15.625 g ai/ha, read-out: Morningglory, Ivy-leaved damage rating (100=total damage to plant; 0=no damage to plant)",0%
same,pest or weed control at 62.5 g/ha,"[12]; 62.5 g ai/ha, 100=total damage to plant, 0=no damage to plant, read-out: Morningglory, Ivy-leaved damage rating",0%
same,pest or weed control at 250 g/ha,"[12]; 250 g ai/ha, read-out: Morningglory, Ivy-leaved damage rating (100=total damage to plant; 0=no damage to plant)",10%
